Assay results: ChEMBL document CHEMBL1125841, “Nucleosides and nucleotides. 96. Synthesis and antitumor activity of 5-ethynyl-1-beta-D-ribofuranosylimidazole-4-carboxamide (EICAR) and its derivatives” (J Med Chem, 1991)
In brackets after ≈: the same amount, converted by molar mass.

What was measured:
RPMI-8226 = assay: In vitro inhibitory activity against growth of Human myeloma (RPMI 8226) cells; format: functional, cell-based
OST = assay: In vitro inhibitory activity against growth of Human osteosarcoma (OST) cells; format: functional, cell-based
Lu-65 = assay: In vitro inhibitory activity against growth of Human gaint cell carcinoma (Lu-65) cells; format: functional, cell-based
SAOS-2 = assay: In vitro inhibitory activity against growth of Human osteogenic sarcoma (Saos-2) cells; format: functional, cell-based
HT-1376 = assay: In vitro inhibitory activity against growth of Human bladder carcinoma (HT1376) cells; format: functional, cell-based
COLO 205 = assay: In vitro inhibitory activity against growth of Human colon adenocarcinoma (COLO 205) cells.; format: functional, cell-based
K562 = assay: In vitro inhibitory activity against growth of Human chronic myelogenous leukemia (K562 cells; format: functional, cell-based
PANC-1 = assay: In vitro inhibitory activity against growth of Human pancreas epitheloid carcinoma (PANC-1) cells; format: functional, cell-based
QG-90 = assay: In vitro inhibitory activity against growth of Human lung small cell carcinoma (QG-90) cells; format: functional, cell-based
PC-6 = assay: In vitro inhibitory activity against growth of Human lung small-cell carcinoma (PC-6) cells; format: functional, cell-based
HT-1080 = assay: In vitro inhibitory activity against growth of Human fibrosarcoma (HT1080) cells; format: functional, cell-based
PC-13 = assay: In vitro inhibitory activity against growth of Human large-cell carcinoma (PC-13) cells; format: functional, cell-based
U-937 = assay: In vitro inhibitory activity against growth of Human histocytic lymphoma (U937) cells; format: functional, cell-based
QG-56 = assay: In vitro inhibitory activity against growth of Human lung squamous-cell carcinoma (QG-56) cells; format: functional, cell-based
KU-2 cell line = assay: In vitro inhibitory activity against growth of Human renal-cell carcinoma (KU-2) cells; format: functional, cell-based
HL-60 = assay: In vitro inhibitory activity against growth of Human promyelocytic leukemia (HL-60) cells; format: functional, cell-based
L1210 [1] = assay: (§1) In vitro inhibitory activity against growth of murine L1210 cells.; format: functional, cell-based; conditions: Mus musculus
Calu-1 = assay: In vitro inhibitory activity against growth of Human epidermoid carcinoma (Calu-1) cells; format: functional, cell-based
KB = assay: In vitro inhibitory activity against growth of Human oral epidermoid carcinoma (KB) cells; format: functional, cell-based
PC-3 = assay: In vitro inhibitory activity against growth of Human lung adenocarcinoma (PC-3) cells.; format: functional, cell-based
SW480 = assay: In vitro inhibitory activity against growth of Human colon adenocarcinoma (SW-480) cells; format: functional, cell-based
CCRF-CEM = assay: In vitro inhibitory activity against growth of Human acute lymphocytic leukemia (CCRF-CEM) cells; format: functional, cell-based
PC-8 = assay: In vitro inhibitory activity against growth of Human lung adenocarcinoma (PC-8) cells; format: functional, cell-based
T-24 = assay: In vitro inhibitory activity against growth of Human bladder transitional-cell carcinoma (T-24) cells; format: functional, cell-based
HOS = assay: In vitro inhibitory activity against growth of Human osteogenic sarcoma (HOS) cells; format: functional, cell-based
G-292 = assay: In vitro inhibitory activity against growth of Human osteogenic sarcoma (G-292) cells; format: functional, cell-based; conditions: G292
L1210 [2] = assay: In vitro inhibitory activity against growth of murine L1210 cells at 100 ug/mL concentration; format: functional; conditions: Mus musculus
L1210 [3] = assay: as §1; format: functional, Mus musculus

C#Cc1c(C(N)=O)ncn1[C@@H]1O[C@H](CO)[C@@H](O)[C@H]1O
IC50 (RPMI-8226): 0.44 µg/mL (≈ 1.65 µM) | IC50 (OST): 28 µg/mL (≈ 105 µM) | IC50 (Lu-65): 3.8 µg/mL (≈ 14.2 µM) | IC50 (SAOS-2): 4.23 µg/mL (≈ 15.8 µM) | IC50 (HT-1376): 0.14 µg/mL (≈ 0.524 µM) | IC50 (COLO 205): 0.11 µg/mL (≈ 0.412 µM) | IC50 (K562): 0.17 µg/mL (≈ 0.636 µM) | IC50 (PANC-1): 0.16 µg/mL (≈ 0.599 µM) | IC50 (QG-90): 0.23 µg/mL (≈ 0.861 µM) | IC50 (PC-6): 0.46 µg/mL (≈ 1.72 µM) | IC50 (HT-1080): 3 µg/mL (≈ 11.2 µM) | IC50 (PC-13): 86 µg/mL (≈ 322 µM) | IC50 (U-937): 0.11 µg/mL (≈ 0.412 µM) | IC50 (QG-56): 0.18 µg/mL (≈ 0.674 µM) | IC50 (KU-2 cell line): < 0.1 µg/mL | IC50 (HL-60): 0.23 µg/mL (≈ 0.861 µM) | IC50 (L1210 [1]): 0.18 µg/mL (≈ 0.674 µM) | IC50 (Calu-1): 0.21 µg/mL (≈ 0.786 µM) | IC50 (KB): 12 µg/mL (≈ 44.9 µM) | IC50 (PC-3): 96 µg/mL (≈ 359 µM) | IC50 (SW480): 3.3 µg/mL (≈ 12.3 µM) | IC50 (CCRF-CEM): 1.03 µg/mL (≈ 3.85 µM) | IC50 (PC-8): 0.54 µg/mL (≈ 2.02 µM) | IC50 (T-24): 0.88 µg/mL (≈ 3.29 µM) | IC50 (HOS): 0.28 µg/mL (≈ 1.05 µM) | IC50 (G-292): 2.55 µg/mL (≈ 9.54 µM)

NC(=O)c1ncn(C2O[C@H](CO)[C@@H](O)[C@H]2O)c1C#CC1CCCCC1 (some centres not stated)
inhibition at 100 µg/mL (L1210 [2]): 18.9%

NC(=O)c1ncn(C2O[C@H](CO)[C@@H](O)[C@H]2O)c1C#CCC1CCCC1 (some centres not stated)
inhibition at 100 µg/mL (L1210 [2]): -10.7%

C#Cc1c(C#N)ncn1C1O[C@H](CO)[C@@H](O)[C@H]1O (some centres not stated)
IC50 (L1210 [1]): 1.9 µg/mL (≈ 7.62 µM)

CCCCC#Cc1c(C(N)=O)ncn1C1O[C@H](CO)[C@@H](O)[C@H]1O (some centres not stated)
IC50 (L1210 [1]): 2.29 µg/mL (≈ 7.08 µM)

N#Cc1ncn(C2O[C@H](CO)[C@@H](O)[C@H]2O)c1C#CCCO (some centres not stated)
IC50 (L1210 [1]): 3.3 µg/mL (≈ 11.3 µM)

N#CCCCC#Cc1c(C(N)=O)ncn1C1O[C@H](CO)[C@@H](O)[C@H]1O (some centres not stated)
Inhibition (L1210 [3]): 3.6%

CCCC#Cc1c(C#N)ncn1C1O[C@H](CO)[C@@H](O)[C@H]1O (some centres not stated)
IC50 (L1210 [1]): 14.8 µg/mL (≈ 50.8 µM)

C=Cc1c(C(N)=O)ncn1C1O[C@H](CO)[C@@H](O)[C@H]1O (some centres not stated)
inhibition at 100 µg/mL (L1210 [2]): 0.4%

N#Cc1ncn(C2O[C@H](CO)[C@@H](O)[C@H]2O)c1C#Cc1ccccc1 (some centres not stated)
IC50 (L1210 [1]): 80.3 µg/mL (≈ 247 µM)

N#Cc1ncn(C2O[C@H](CO)[C@@H](O)[C@H]2O)c1C#CCO (some centres not stated)
IC50 (L1210 [1]): 4.1 µg/mL (≈ 14.7 µM)

NC(=O)c1ncn(C2O[C@H](CO)[C@@H](O)[C@H]2O)c1C#CCCc1ccccc1 (some centres not stated)
inhibition at 100 µg/mL (L1210 [2]): 8.5%

NC(=O)c1ncn(C2O[C@H](CO)[C@@H](O)[C@H]2O)c1C#CCCO (some centres not stated)
IC50 (OST): 51 µg/mL (≈ 164 µM) | IC50 (Lu-65): 15 µg/mL (≈ 48.2 µM) | IC50 (PC-6): 12 µg/mL (≈ 38.5 µM) | IC50 (HT-1080): > 100 µg/mL | IC50 (PC-13): 26 µg/mL (≈ 83.5 µM) | IC50 (L1210 [1]): 1.28 µg/mL (≈ 4.11 µM) | IC50 (KB): 9.5 µg/mL (≈ 30.5 µM) | IC50 (PC-3): > 100 µg/mL | IC50 (SW480): 6.2 µg/mL (≈ 19.9 µM) | IC50 (T-24): 15 µg/mL (≈ 48.2 µM)

NC(=O)c1ncn(C2O[C@H](CO)[C@@H](O)[C@H]2O)c1C#Cc1ccccc1 (some centres not stated)
IC50 (L1210 [1]): 20.6 µg/mL (≈ 60 µM)

NC(=O)c1ncn(C2O[C@H](CO)[C@@H](O)[C@H]2O)c1C#CCO (some centres not stated)
IC50 (OST): > 100 µg/mL | IC50 (Lu-65): 54 µg/mL (≈ 182 µM) | IC50 (PC-13): 44 µg/mL (≈ 148 µM) | IC50 (L1210 [1]): 0.7 µg/mL (≈ 2.35 µM) | IC50 (KB): 7.5 µg/mL (≈ 25.2 µM) | IC50 (PC-3): 54 µg/mL (≈ 182 µM) | IC50 (SW480): 3.8 µg/mL (≈ 12.8 µM) | IC50 (T-24): 8.8 µg/mL (≈ 29.6 µM)

CC(C)(O)C#Cc1c(C(N)=O)ncn1C1O[C@H](CO)[C@@H](O)[C@H]1O (some centres not stated)
IC50 (L1210 [1]): 4.8 µg/mL (≈ 14.8 µM)

O=c1[nH]cc(F)c(=O)[nH]1 [FLUOROURACIL]
IC50 (RPMI-8226): 0.07 µg/mL (≈ 0.538 µM) | IC50 (SAOS-2): 0.78 µg/mL (≈ 6 µM) | IC50 (HT-1376): 0.58 µg/mL (≈ 4.46 µM) | IC50 (COLO 205): 0.1 µg/mL (≈ 0.769 µM) | IC50 (K562): 2.2 µg/mL (≈ 16.9 µM) | IC50 (PANC-1): 0.22 µg/mL (≈ 1.69 µM) | IC50 (QG-90): 0.22 µg/mL (≈ 1.69 µM) | IC50 (U-937): 0.11 µg/mL (≈ 0.846 µM) | IC50 (QG-56): 0.18 µg/mL (≈ 1.38 µM) | IC50 (KU-2 cell line): 0.28 µg/mL (≈ 2.15 µM) | IC50 (HL-60): 1.33 µg/mL (≈ 10.2 µM) | IC50 (Calu-1): > 3.3 µg/mL | IC50 (CCRF-CEM): 2.1 µg/mL (≈ 16.1 µM) | IC50 (PC-8): 0.42 µg/mL (≈ 3.23 µM) | IC50 (HOS): 0.79 µg/mL (≈ 6.07 µM) | IC50 (G-292): > 3.3 µg/mL

NC(=O)c1ncn([C@@H]2O[C@H](CO)[C@@H](O)[C@H]2O)c1O [MIZORIBINE]
IC50 (OST): > 100 µg/mL | IC50 (Lu-65): > 100 µg/mL | IC50 (PC-6): 49 µg/mL (≈ 189 µM) | IC50 (HT-1080): > 100 µg/mL | IC50 (PC-13): > 100 µg/mL | IC50 (KB): > 100 µg/mL | IC50 (PC-3): > 100 µg/mL | IC50 (SW480): 42 µg/mL (≈ 162 µM) | IC50 (T-24): > 100 µg/mL
